Measurements: patent US11730731B2 (INVENTAGE LAB INC., priority 2021, dated 2023)
Structures can show the parent of a compound that is named as a salt.

Tests used:
[1] = test system: pro-inflammatory cytokines (TNF-α, IL-1β, IL-6, IL-17, iNOS) in Raw 264.7 cells; test: RT-qPCR of LPS-induced pro-inflammatory cytokine expression in Raw 264.7 cells; conditions: LPS 1 ug/ml, 0.5, 1, 10, 100 uM, 6 hours
Text: (§4) Lipopolysaccharide (LPS) was purchased from Sigma-Aldrich (St. Louis, Mo., USA).

MAPKs (ERK, JNK, p38) [2] = test: Western blotting of MAPKs activity in LPS-treated SW982 cells; type: cell-based, human; conditions: LPS 1 ug/ml, 0.5, 1, 10, 100 uM, 30 minutes, naltrexone effect at 1 uM
Experimental: (§1) Western blotting was performed in the same manner as in Example 6.3. The first antibody used at this time is an antibody against p-ERK, ERK, p-JNK, JNK, p-p38, p38 and calnexin (Cell signaling, CA, USA), and the secondary antibody is anti-mouse or anti-rabbit HRP-binding secondary antibody.
(§2) 1× Cell lysis buffer (Cell signaling, CA, USA) was mixed with protease and a phosphatase inhibitor and added to SW982 cells. After extracting the protein from the cells, the concentration was measured, and the same amount of protein was developed on an SDS-polyacrylamide gel, and transferred to an ECL nitrocellulose membrane (Amersham Pharmacia Biotech, Inc., Piscataway, N.J., USA) and blocked with nonfat dried milk for 1 hour. Thereafter, the reaction was performed with the first antibody (p65 NF-κB, phospho p65 NF-κB, p-ERK, ERK, p-JNK, JNK, p-p38, p38 or calnexin; Cell signaling, CA, USA), while shaking at 4° C. for 24 hours. Then, after shaking and washing 3 times for 10 minutes with PBST buffer, the secondary antibody was incubated with anti-mouse or anti-rabbit HRP-conjugated secondary antibody for 1 hour at room temperature, and reacted with the protein band on the membrane using Supersignal west pico ECL solution (Thermo Fisher Scientific Inc.). The results were visualized with the Bio-Rad Gel Documentation system (Bio-Rad Laboratories, Hercules, Calif., USA), and the results are shown in FIG. 35.

p65 NF-κB [3] = test: Western blotting of NF-κB activity in LPS-treated SW982 cells; type: cell-based, human; conditions: LPS 1 ug/ml, 0.5, 1, 10, 100 uM, 30 minutes, naltrexone effect at 1 uM
Experimental: as §2, with “NF-κB” for “NF-κB, p-ERK, ERK, p-JNK, JNK, p-p38, p38”, “were” for “are”, “26.” for “35.”
as §2, with “The results were visualized with the Bio-Rad Gel Documentation system (Bio-Rad Laboratories, Hercules, Calif., USA), and the results are shown in FIG. 35.” left out

MAPKs (ERK, JNK, p38) [4] = test: Western blotting of MAPKs activity in LPS-treated Raw 264.7 cells; type: cell-based, mouse; conditions: LPS 1 ug/ml, 0.5, 1, 10, 100 uM, 30 minutes
Experimental: as §1
Western blotting was performed in the same manner as in Example 7.4.

[5] = test system: pro-inflammatory cytokines (TNF-α, IL-1β, IL-6, IL-17, iNOS) in SW982 cells; test: RT-qPCR of LPS-induced pro-inflammatory cytokine expression in SW982 cells; conditions: LPS 1 ug/ml, 0.5, 1, 10, 100 uM, 6 hours
Text: as §4

p65 NF-κB [6] = test: Western blotting of NF-κB activity in LPS-treated Raw 264.7 cells; type: cell-based, mouse; conditions: LPS 1 ug/ml, 0.5, 1, 10, 100 uM, 30 minutes
[7] = test system: experimental autoimmune encephalomyelitis (EAE); test: EAE clinical score in experimental autoimmune encephalomyelitis mice (multiple sclerosis model); type: in vivo; conditions: Example 5, EAE mouse; Q-DDS 1 mg/mouse sc once on day 3; Fytarex 3 mg/kg oral daily; Revia oral daily; mean±SEM
Experimental: As an experimental autoimmune encephalomyelitis mouse model (Mouse Experimental Autoimmune Encephalomyelitis: EAE), 6 to 10 week-old female mice of C57BL/6 strain were prepared.
Myelin-oligodendrocyte glycoprotein (MOG) was dissolved in phosphate-buffered saline (PBS) to be 1 mg/mL, and was emulsified by mixing at 1:1 (v/v) with 5 mg/mL Complete Freund's adjuvant. 100 μl of this was subcutaneously injected into both sides of the mouse, and then 400 μl of 2 pg/mL pertussis toxin was intraperitoneally injected (first immunization, day 0). On the second day, 400 μl of 2 μg/mL pertussis toxin was intraperitoneally injected a second time. On the third day after the first immunization, the test was performed by separating the experimental group.
Then, the occurrence and extent of clinical symptoms were regularly observed until the end of the experiment (The 30th day). The clinical symptom level was assigned a score of 0 to 5 after evaluating the functionality of the tail and four legs according to the criteria in Table 34 below, and was used as the EAE clinical score.

[8] = test system: myelin basic protein (MBP); test: Immunohistochemistry staining of spinal cord with anti-myelin basic protein antibody, EAE mice; type: in vivo; conditions: day 30, spinal cord IHC, Fytarex 3 mg/kg, Revia 1 mg/kg, Q-DDS 1 mg/mouse
Experimental: (§3) After mouse euthanasia, spinal cord tissue was extracted, hematoxylin/eosin staining and Luxol Fast Blue staining were performed, and MBP-targeted immunohistochemical staining was performed, and histological evaluation was performed through blind evaluation.
On the 30th day which is the last day of the experiment, mouse was sacrificed, and the mouse spinal cord tissue was extracted and paraffin-embedded slides were prepared and then myelin basic protein (MBP) was stained immunohistochemically, and the spinal cord tissue was photographed at 50 and 200 magnifications. This is to confirm demyelination through immunohistochemical analysis using an antibody against myelin basic protein (MBP), a component of myelin.

[9] = test system: experimental autoimmune encephalomyelitis (EAE); test: Spinal cord histology, Luxol Fast Blue staining (demyelination score), EAE mice; type: in vivo, mouse
Experimental: as §3
On the 30th day which is the last day of the experiment, mouse was sacrificed, and the mouse spinal cord tissue was extracted and paraffin-embedded slides were prepared and then stained with Luxol Fast Blue, and the spinal cord tissue was photographed at 50 and 200 magnifications. In Luxol Fast Blue staining, myelin is stained from blue to green, and nerves are stained purple, and through this, the degree of demyelination was analyzed in the EAE model by confirming the neural structure in the spinal cord. Demyelination was analyzed according to the criteria described in Table 38 below and measured as a score.

[10] = test system: experimental autoimmune encephalomyelitis (EAE); test: Spinal cord histology, hematoxylin/eosin staining (inflammation score), EAE mice; type: in vivo; conditions: day 30, spinal cord, Fytarex 3 mg/kg, Revia 1 mg/kg, Q-DDS 1 mg/mouse
Experimental: as §3
On the 30th day which is the last day of the experiment, mouse was sacrificed, and the mouse spinal cord tissue was extracted and paraffin-embedded slides were prepared and then stained with hematoxylin/eosin, and the spinal cord tissue was photographed at 50 and 200 magnifications. Then, histological scores were measured according to the histological evaluation criteria of Table 36 below to evaluate the distribution of inflammatory cells.

Compound: Oc1ccc2c3c1O[C@H]1[C@H](O)CC[C@@]4(O)[C@@H](C2)N(CC2CC2)CC[C@]314 [6β-naltrexol]
- expression of cytokines (iNOS, IL-1β, IL-6, TNF-α) induced by LPS [1]: suppressed at all concentrations
- phosphorylation of MAPKs (ERK1/2, JNK, p38) increased by LPS (MAPKs (ERK, JNK, p38) [2]): no inhibitory effect
- phosphorylation of p65 NF-κB increased by LPS (p65 NF-κB [3]): no inhibitory effect
- phosphorylation of MAPKs (ERK1/2, JNK, p38) (MAPKs (ERK, JNK, p38) [4]): no inhibitory effect
- expression of cytokines (iNOS, IL-1β, IL-6, TNF-α) induced by LPS [5]: suppressed at all concentrations
- p65 NF-κB phosphorylation increased by LPS (p65 NF-κB [6]): inhibited

Compound: CCCCCCCCc1ccc(CCC(N)(CO)CO)cc1 [Fytarex®, Fingolimod]
- EAE clinical score [7]: 1.67±0.13

Compound: O=C1CC[C@@]2(O)[C@H]3Cc4ccc(O)c5c4[C@@]2(CCN3CC2CC2)[C@H]1O5 [Revia ®]
- MBP positive area/total spinal area, Mean [8]: 58.23
- Demyelination score (histological score), Mean ([9]; EAE mice, day 30, spinal cord, Luxol Fast Blue, Fytarex 3 mg/kg, Revia 1 mg/kg, Q-DDS 1 mg/mouse): 0.61
- Inflammation score (histological score), Mean [10]: 1.42

Compound: O=C1CC[C@@]2(O)[C@H]3Cc4ccc(O)c5c4[C@@]2(CCN3CC2CC2)[C@H]1O5 [Revia®, naltrexone hydrochloride]
- demyelination histological score (Luxol Fast Blue, spinal cord) ([9]; Example 5, EAE mouse, day 30, Q-DDS 1 mg/mouse sc once, Fytarex and Revia oral daily, mean±SEM): decrease in histological score and demyelination
